EP1792623B1, “Use of extracts and constituents of leontopodium as enhancers of cholinergic function” (Leopold-Franzens-Universität Innsbruck, priority 2005, dated 2007)

Experiments:
[1] = test system: acetylcholinesterase; type: biochemical; settings: c = 100 mM, after 60 min, in comparison to medium control
Description: Experiments are carried out applying Ellman's method in a 96-well microplate assay described by Ingkaninan et al, Journal of Chromatography A 827 (2000) p. 6173 and Rhee et al, Journal of Chromatography A 915 (2001) p. 217-223. In addition to buffer A described above, a buffer containing 0.1 M NaCl and 0.02 M MgClx2.6 H2O in buffer A is used for preparing a 3 mM solution of DTNB. For the microplate assay the substrate ATCI is dissolved 15 mM in water (HPLC grade). The enzyme stock solution is diluted with buffer A to get 0.22 U/ml. In the 96-well plates, 25 µl of 15 mM ATCl, 125 µl of 3 mM DTNB, 50 µl of buffer A, and 25 µl of sample (10 mM in MeOH, respectively DMSO (dimethylsulfoxide), diluted ten times with buffer A) are added. […] […] The absorbance of the product (2-nitrobenzoate-5-mercapto thioline) is measured at 405 nm with a Chameleon 5025 (Hidex, Finland) microplate reader 0, 15, 30, 45 and 60 minutes after adding 25 µl of 0.22 U/ml acetylcholinesterase-solution to the reaction mixture. All experiments are performed 4 times (n=4) and the data are statistically processed using the SPSS 11.5 program package. Percentage of inhibition is calculated by comparing the rates for the sample to the blank (10% MeOH, resp. DMSO, in buffer).

[2] = test system: release of ACh in rat brain; assay: ACh release in nucleus accumbens, push-pull technique, after i.c.v. application; type: in vivo, Sprague-Dawley rats; settings: 2 µmol i.c.v.
From the text: Surgery and push-pull technique: Protocols of experiments were approved by the Bundesministerium für Wissenschaft, Forschung and Kunst, Austria, Kommission für Tierversuchsangelegenheitem. Sprague-Dawley rats (250-280 g) were anaesthetized with urethane 1.2 g/kg. i.p. The head was fixed in a stereotaxic frame and a push-pull cannula (outer tubing: o.d. 0.75 mm, i.d. 0.41 mm; inner tubing: o.d. 0.26 mm, i.d. 0.13 mm) was mounted on a microdrive. This was stereotaxically inserted through a hole in the skull into the nucleus accumbens (coordinates, mm from bregma: AP, +1.2, L, +2.5; V, -7.8) (Paxinos G. Watson H. (1998) The rat brain in stereotaxic coordinates, 4th edn. Academic Press, Sidney.). […] After 1 h of the cannula insertion the samples were collected into tubes kept at -20° C in time periods of 10 min and then stored at -80°C until acetylcholine (ACh) was determined. […]
Determination of acetylcholine (ACh): ACh content in the samples was determined by HPLC with a cation-exchanging analytical column and a post-column reactor followed by electrochemical detection (Damsma et al, 1997; Prast et al; 1998). […] The peroxide was electrochemically detected by a UniJet platin electrode (3mm) at +500 mV with an amperometric detector (BAS LC-4, Bioanalytical Systems, West Lafayette, IN, USA). […] ACh was quantified with external standards that were injected at the beginning and the end of the analysis. […]

Question: For 14-acetoxy-isocomene, which “inhibition (%)” value [1] is on record?
Answer: 1.4 ± 8.1%

Question: And the “release of ACh in rat brain” value [2]?
Answer: significantly enhance the concentration of neurotransmitters in the CNS
